Assay [1] deals with Triticum aestivum. Nature of the assay: Induction of systemic acquired resistance against Blumeria graminis f. sp. tritici in Triticum aestivum (wheat) plants on Kanzler cultivar assessed as decrease in disease severity of powdery mildew in leaves […] (wheat) exposed to 1.2 mM compound for 3 years by small-plot experiment relative to control. The arrangement: scale not given: the % may be the effect or the level left. The class given is functional.

The test system of assay [2] is Triticum aestivum. The assay can be described thus: Induction of systemic acquired resistance against Blumeria graminis f. sp. tritici in Triticum aestivum (wheat) plants on Kanzler cultivar assessed as decrease in disease severity of powdery mildew in leaves […] (wheat) exposed to 0.3 M compound for 3 years by small-plot experiment relative to control. The assay is classed as functional. Set-up: scale not given: the % may be the effect or the level left.

Take `CSC(=O)c1cccc2nnsc12` [ACIBENZOLAR-S-METHYL]: the Activity in the assay on Triticum aestivum [1] worked out at 14.5%. As for `C[N+](C)(C)CC(=O)O` [BETAINE], the Activity in the assay with Triticum aestivum [2] stood at 31.8%.

Source of the values: ChEMBL document CHEMBL3044805, “A comparative study of the efficiency of several sources of induced resistance to powdery mildew (Blumeria graminis f. sp. tritici) in wheat under field conditions” (2009).
